According to PubChem BioAssay AID2060619 (Molecular Pharmacology Branch, DTP, NCI, 2025):
Values belong to the compound of their own block, whether it stands above or below them.

System: 323965-272-R-J2-PDC complex spheroid viability
Test: Anticancer human tumor 323965-272-R-J2-PDC patient-derived pancreatic carcinoma cell line growth inhibition [CLK]
Conditions: for IC50: curve of first compound; for viability, T/C: stronger effect = lower value
Outline: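 Multi-cell-type spheroids combined patient-derived tumor cells with HUVEC endothelial cells and human mesenchymal stem cells. Paired agents were dosed in half-log steps down from about clinical Cmax, or from 10 microM where Cmax was unknown.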

[1] = second compound 0.0316 µM, first compound 0.0316 µM
[2] = second compound 0.0316 µM, first compound 0.1 µM
[3] = second compound 0.1 µM, first compound 0.0316 µM
[4] = second compound 0.1 µM, first compound 0.1 µM
[5] = second compound 0.316 µM, first compound 0.0316 µM
[6] = second compound 0.316 µM, first compound 0.1 µM
[7] = second compound 1 µM, first compound 0.0316 µM
[8] = second compound 1 µM, first compound 0.1 µM
[9] = second compound 3.16 µM, first compound 0.0316 µM
[10] = second compound 3.16 µM, first compound 0.1 µM
[11] = second compound 10 µM, first compound 0.0316 µM
[12] = second compound 10 µM, first compound 0.1 µM
[13] = second compound 0.0316 µM, first compound 0.316 µM
[14] = second compound 0.0316 µM, first compound 1 µM
[15] = second compound 0.0316 µM, first compound 3.16 µM
[16] = second compound 0.0316 µM, first compound 10 µM
[17] = second compound 0.1 µM, first compound 0.316 µM
[18] = second compound 0.1 µM, first compound 1 µM
[19] = second compound 0.1 µM, first compound 3.16 µM
[20] = second compound 0.1 µM, first compound 10 µM
[21] = second compound 0.316 µM, first compound 0.316 µM
[22] = second compound 0.316 µM, first compound 1 µM
[23] = second compound 0.316 µM, first compound 3.16 µM
[24] = second compound 0.316 µM, first compound 10 µM
[25] = second compound 1 µM, first compound 0.316 µM
[26] = second compound 1 µM, first compound 1 µM
[27] = second compound 1 µM, first compound 3.16 µM
[28] = second compound 1 µM, first compound 10 µM
[29] = second compound 3.16 µM, first compound 0.316 µM
[30] = second compound 3.16 µM, first compound 1 µM
[31] = second compound 3.16 µM, first compound 3.16 µM
[32] = second compound 3.16 µM, first compound 10 µM
[33] = second compound 10 µM, first compound 0.316 µM
[34] = second compound 10 µM, first compound 1 µM
[35] = second compound 10 µM, first compound 3.16 µM
[36] = second compound 10 µM, first compound 10 µM
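Note: spheroids exposed to agents for seven days before readout.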
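Throughout, for viability, T/C: percent of DMSO vehicle control wells so 100% = untreated growth.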

IC50 (second compound 0.0316 µM): > 100 nM
IC50 (second compound 0.1 µM): > 100 nM
IC50 (second compound 0.316 µM): > 100 nM
IC50 (second compound 1 µM): < 0.316 nM
IC50 (second compound 3.16 µM): < 0.316 nM
IC50 (second compound 10 µM): < 0.316 nM
SMILES: Cn1ncnc1[C@H]1c2n[nH]c(=O)c3cc(F)cc(c23)N[C@@H]1c1ccc(F)cc1 + CNC(=O)c1ccc(Nc2nc(OC3CCCC3)c3c(-c4ccc5nc(C)oc5c4)c[nH]c3n2)c(OC)c1
viability, T/C (second compound 0.0316 µM, first compound 0.000316 µM): 126%
viability, T/C (second compound 0.0316 µM, first compound 0.001 µM): 118%
viability, T/C (second compound 0.0316 µM, first compound 0.00316 µM): 104%
viability, T/C (second compound 0.0316 µM, first compound 0.01 µM): 110%
viability, T/C [1]: 86.8%
viability, T/C [2]: 97.1%
viability, T/C (second compound 0.1 µM, first compound 0.000316 µM): 86.2%
viability, T/C (second compound 0.1 µM, first compound 0.001 µM): 75.3%
viability, T/C (second compound 0.1 µM, first compound 0.00316 µM): 78.9%
viability, T/C (second compound 0.1 µM, first compound 0.01 µM): 85.3%
viability, T/C [3]: 76.1%
viability, T/C [4]: 66%
viability, T/C (second compound 0.316 µM, first compound 0.000316 µM): 69.6%
viability, T/C (second compound 0.316 µM, first compound 0.001 µM): 66.7%
viability, T/C (second compound 0.316 µM, first compound 0.00316 µM): 55.5%
viability, T/C (second compound 0.316 µM, first compound 0.01 µM): 67.8%
viability, T/C [5]: 70%
viability, T/C [6]: 51.6%
viability, T/C (second compound 1 µM, first compound 0.000316 µM): 41.3%
viability, T/C (second compound 1 µM, first compound 0.001 µM): 45.5%
viability, T/C (second compound 1 µM, first compound 0.00316 µM): 48.5%
viability, T/C (second compound 1 µM, first compound 0.01 µM): 38.3%
viability, T/C [7]: 52%
viability, T/C [8]: 43.4%
viability, T/C (second compound 3.16 µM, first compound 0.000316 µM): 36.7%
viability, T/C (second compound 3.16 µM, first compound 0.001 µM): 47.2%
viability, T/C (second compound 3.16 µM, first compound 0.00316 µM): 42.4%
viability, T/C (second compound 3.16 µM, first compound 0.01 µM): 43.9%
viability, T/C [9]: 51.5%
viability, T/C [10]: 43.3%
viability, T/C (second compound 10 µM, first compound 0.000316 µM): 37.1%
viability, T/C (second compound 10 µM, first compound 0.001 µM): 36.6%
viability, T/C (second compound 10 µM, first compound 0.00316 µM): 42.6%
viability, T/C (second compound 10 µM, first compound 0.01 µM): 45.7%
viability, T/C [11]: 43.1%
viability, T/C [12]: 43.1%

IC50 (second compound 0.0316 µM): < 31.6 nM
IC50 (second compound 0.1 µM): < 31.6 nM
IC50 (second compound 0.316 µM): < 31.6 nM
IC50 (second compound 1 µM): < 31.6 nM
IC50 (second compound 3.16 µM): < 31.6 nM
IC50 (second compound 10 µM): < 31.6 nM
SMILES: Nc1ccn(C2OC(CO)C(O)C2(F)F)c(=O)n1 (stereo unspecified) + CNC(=O)c1ccc(Nc2nc(OC3CCCC3)c3c(-c4ccc5nc(C)oc5c4)c[nH]c3n2)c(OC)c1
viability, T/C [1]: 30.7%
viability, T/C [2]: 33%
viability, T/C [13]: 30.3%
viability, T/C [14]: 27.9%
viability, T/C [15]: 27.9%
viability, T/C [16]: 30.4%
viability, T/C [3]: 37.4%
viability, T/C [4]: 33.3%
viability, T/C [17]: 26%
viability, T/C [18]: 32.3%
viability, T/C [19]: 30.2%
viability, T/C [20]: 32.1%
viability, T/C [5]: 32.9%
viability, T/C [6]: 27.8%
viability, T/C [21]: 25.4%
viability, T/C [22]: 27.8%
viability, T/C [23]: 28.1%
viability, T/C [24]: 25.2%
viability, T/C [7]: 24.2%
viability, T/C [8]: 21.4%
viability, T/C [25]: 21.4%
viability, T/C [26]: 18.9%
viability, T/C [27]: 17.8%
viability, T/C [28]: 18.9%
viability, T/C [9]: 25.6%
viability, T/C [10]: 22.8%
viability, T/C [29]: 21.6%
viability, T/C [30]: 21.2%
viability, T/C [31]: 19.7%
viability, T/C [32]: 18.2%
viability, T/C [11]: 26.7%
viability, T/C [12]: 23%
viability, T/C [33]: 24.2%
viability, T/C [34]: 21.1%
viability, T/C [35]: 22%
viability, T/C [36]: 15.8%

IC50 (second compound 0.0316 µM): > 10000 nM
IC50 (second compound 0.1 µM): > 10000 nM
IC50 (second compound 0.316 µM): 1900 nM
IC50 (second compound 1 µM): < 31.6 nM
IC50 (second compound 3.16 µM): < 31.6 nM
IC50 (second compound 10 µM): < 31.6 nM
SMILES: O=c1[nH]cc(F)c(=O)[nH]1 + CNC(=O)c1ccc(Nc2nc(OC3CCCC3)c3c(-c4ccc5nc(C)oc5c4)c[nH]c3n2)c(OC)c1
viability, T/C [1]: 84.2%
viability, T/C [2]: 91.9%
viability, T/C [13]: 110%
viability, T/C [14]: 91.4%
viability, T/C [15]: 73.8%
viability, T/C [16]: 55.4%
viability, T/C [3]: 85.1%
viability, T/C [4]: 80.5%
viability, T/C [17]: 72.4%
viability, T/C [18]: 65.6%
viability, T/C [19]: 57.3%
viability, T/C [20]: 53.1%
viability, T/C [5]: 59.2%
viability, T/C [6]: 59.9%
viability, T/C [21]: 57.8%
viability, T/C [22]: 48.3%
viability, T/C [23]: 50.6%
viability, T/C [24]: 41.6%
viability, T/C [7]: 43.9%
viability, T/C [8]: 41.1%
viability, T/C [25]: 48.1%
viability, T/C [26]: 38.2%
viability, T/C [27]: 34.7%
viability, T/C [28]: 29.3%
viability, T/C [9]: 40.6%
viability, T/C [10]: 36.8%
viability, T/C [29]: 37.4%
viability, T/C [30]: 36.9%
viability, T/C [31]: 29.5%
viability, T/C [32]: 27.2%
viability, T/C [11]: 37.8%
viability, T/C [12]: 42.7%
viability, T/C [33]: 38.9%
viability, T/C [34]: 37.6%
viability, T/C [35]: 31.4%
viability, T/C [36]: 31.3%
